Experimental data as given in patent US20260200939A1, “MOLECULAR GLUE DEGRADER COMPOUNDS AND USES THEREOF” (Novartis AG, priority 2022, published 2026).
pIC50: −log10 of the molar value.

These molecules were tested against T1, Recombinant RNF126 (Homo sapiens, UniProt Q9BV68) (assay: RNF126 Binding Assay, gel-based ABPP). Details: not given.
T1 construct: FLAG (C); host or cells: HEK293T
Method: RNF126 mammalian expression plasmid with a C-terminal FLAG tag was purchased from Origene (Origene Technologies Inc., RC204986). The plasmid was transformed into NEB 5-alpha Competent E. coli (DH5) cells (NEB product no. C2987H). The following day, a single transformed colony was used to inoculate 50 ml of nutrient rich LB medium containing kanamycin (50 μg/ml) and was incubated at 37° C. overnight, with agitation (250 rpm). A Miniprep (Qiagen) kit was used to isolate the plasmid before sequence verification with appropriate primers.
HEK293T cells were grown to 30-50% confluency in DMEM supplemented with 10% FBS (Corning) and maintained at 37° C. with 5% CO2. Immediately before transfection, media was replaced with DMEM containing 5% FBS. Each plate was transfected with 24 μg of overexpression plasmid with 24 μL Lipofectamine 3000 (Invitrogen) in Opti-MEM. After 48 h cells were collected in PBS, lysed by sonication, and batch bound with anti-DYKDDDDK resin (GenScript, L00432) for 2 hours. Lysate and resin were washed with PBS and eluted with 133.33 μg/ml 3×FLAG peptide (ApexBio, A6001) in PBS. Five elutions were performed for 15 minutes each. Elutions were concentrated and the protein was stored in PBS. Concentration and purity was determined using the BCA assay and western blotting.
Recombinant RNF126 ([…]) was pre-treated with either DMSO vehicle or covalent ligand at 37° C. for 30 min in 25 μL of PBS, and subsequently treated with of IA-Rhodamine (concentrations designated in figure legends) (Setareh Biotech) at room temperature for 1 h in the dark. The reaction was stopped by addition of 4×reducing Laemmli SDS sample loading buffer (Alfa Aesar). After boiling at 95° C. for 5 min, the samples were separated on precast 4-20% Criterion TGX gels (Bio-Rad). Probe-labeled proteins were analyzed by in-gel fluorescence using a ChemiDoc MP (Bio-Rad).

T1 sequence (Q9BV68 whole entry): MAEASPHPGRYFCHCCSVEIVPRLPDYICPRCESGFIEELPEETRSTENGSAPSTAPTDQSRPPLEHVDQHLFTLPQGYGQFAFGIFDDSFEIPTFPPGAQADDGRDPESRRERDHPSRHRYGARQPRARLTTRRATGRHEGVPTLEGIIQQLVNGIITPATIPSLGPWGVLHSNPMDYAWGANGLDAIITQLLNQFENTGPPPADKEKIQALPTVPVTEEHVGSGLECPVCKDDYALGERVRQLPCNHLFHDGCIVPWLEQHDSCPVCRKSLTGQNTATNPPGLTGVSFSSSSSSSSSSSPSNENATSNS

| pIC50 | SMILES |
| --- | --- |
| < 4.30 | COc1ccc(C(=O)/C(C)=C/C(=O)N2CCNCC2)cc1 [Compound 145, (E)-1-(4-methoxyphenyl)-2-methyl-4-(piperazin-1-yl)but-2-ene-1,4-dione] |
| 5.00 to 6.00 | COc1ccccc1C(=O)/C=C/C(=O)N1CCNCC1 [Compound 147, (E)-1-(2-methoxyphenyl)-4-(piperazin-1-yl)but-2-ene-1,4-dione] |
| 5.00 to 6.00 | O=C(/C=C/C(=O)N1CCNCC1)c1ccccc1F [Compound 149, (E)-1-(2-fluorophenyl)-4-(piperazin-1-yl)but-2-ene-1,4-dione] |
| 5.00 to 6.00 | O=C(/C=C/C(=O)N1CCNCC1)c1ccc(F)cc1 [Compound 150, (E)-1-(4-fluorophenyl)-4-(piperazin-1-yl)but-2-ene-1,4-dione] |
| > 7.00 | COc1cccc(C(=O)/C=C/C(=O)N2CCN(C(=O)OC(C)(C)C)CC2)c1 [Compound 156, tert-butyl (E)-4-(4-(3-methoxyphenyl)-4-oxobut-2-enoyl)piperazine-1-carboxylate] |
| > 7.00 | Cc1cccc(C(=O)/C=C/C(=O)N2CCN(C(=O)OC(C)(C)C)CC2)c1 [Compound 157, tert-butyl (E)-4-(4-oxo-4-(m-toly1)but-2-enoyl)piperazine-1-carboxylate] |
| > 7.00 | CC(C)(C)OC(=O)N1CCN(C(=O)/C=C/C(=O)c2cccc(C(F)(F)F)c2)CC1 [Compound 162, tert-butyl (E)-4-(4-oxo-4-(3-(trifluoromethyl)phenyl)but-2-enoyl)piperazine-1-carboxylate] |
| > 7.00 | CC(C)(C)OC(=O)N1CCN(C(=O)/C=C/C(=O)c2cccc(Br)c2)CC1 [Compound 163, tert-butyl (E)-4-(4-(3-bromophenyl)-4-oxobut-2-enoyl)piperazine-1-carboxylate] |
| > 7.00 | CC(C)(C)OC(=O)N1CCN(C(=O)/C=C/C(=O)c2ccc(Br)cc2)CC1 [Compound 164, tert-butyl (E)-4-(4-(4-bromophenyl)-4-oxobut-2-enoyl)piperazine-1-carboxylate] |
| 4.30 to 5.00 | COc1ccc(C(=O)/C=C(\C)C(=O)N2CCN(C(=O)OC(C)(C)C)CC2)cc1 [Compound 166, tert-butyl (E)-4-(4-(4-methoxyphenyl)-2-methyl-4-oxobut-2-enoyl)piperazine-1-carboxylate] |
| > 7.00 | CC(C)(C)OC(=O)N1CCN(C(=O)/C=C/C(=O)c2ccc3c(c2)NC(=O)CO3)CC1 [Compound 401, tert-butyl (E)-4-(4-oxo-4-(3-oxo-3,4-dihydro-2H-benzo[b][1,4]oxazin-6-yl)but-2-enoyl)piperazine-1-carboxylate] |
| > 7.00 | CC(C)(C)OC(=O)N1CCN(C(=O)/C=C/C(=O)c2ccc3c(c2)OCC3)CC1 [Compound 404, tert-butyl (E)-4-(4-(2,3-dihydrobenzofuran-6-yl)-4-oxobut-2-enoyl)piperazine-1-carboxylate] |
| > 7.00 | Cc1ccccc1C(=O)/C=C/C(=O)N1CCN(C(=O)OC(C)(C)C)CC1 [Compound 407, tert-butyl (E)-4-(4-oxo-4-(o-tolyl)but-2-enoyl)piperazine-1-carboxylate] |
| 4.30 to 5.00 | COc1ccc(C(=O)/C=C\C(=O)N2CCN(C(=O)OC(C)(C)C)CC2)cc1 [Compound 411, tert-butyl (Z)-4-(4-(4-methoxyphenyl)-4-oxobut-2-enoyl)piperazine-1-carboxylate] |
| > 7.00 | COc1ccc(C(=O)/C=C/C(=O)N2CCN(C(=O)OC(C)(C)C)CC2)cc1F [Compound 414, tert-butyl (E)-4-(4-(3-fluoro-4-methoxyphenyl)-4-oxobut-2-enoyl)piperazine-1-carboxylate] |
| > 7.00 | CC(C)(C)OC(=O)N1CCN(C(=O)/C=C/C(=O)c2ccccc2C#N)CC1 [Compound 415, tert-butyl (E)-4-(4-(2-cyanophenyl)-4-oxobut-2-enoyl)piperazine-1-carboxylate] |
| > 7.00 | CC(C)(C)OC(=O)N1CCN(C(=O)/C=C/C(=O)c2ccc(C#N)cc2)CC1 [Compound 416, tert-butyl (E)-4-(4-(4-cyanophenyl)-4-oxobut-2-enoyl)piperazine-1-carboxylate] |

Same assay, conditions: range with lower bound in nM and upper bound in μM

| IC50 | SMILES |
| --- | --- |
| 100 to 1000 nM | O=C(/C=C/C(=O)N1CCNCC1)c1ccccc1 [Compound 152, (E)-1-phenyl-4-(piperazin-1-yl)but-2-ene-1,4-dione] |
| 100 to 1000 nM | COc1ccc(C(=O)/C=C(\C#N)C(=O)N2CCN(C(=O)OC(C)(C)C)CC2)cc1 [Compound 153, tert-butyl (E)-4-(2-cyano-4-(4-methoxyphenyl)-4-oxobut-2-enoyl)piperazine-1-carboxylate] |
| 100 to 1000 nM | CC(C)(C)OC(=O)N1CCN(C(=O)/C=C/C(=O)c2ccccc2Br)CC1 [Compound 154, tert-butyl (E)-4-(4-(2-bromophenyl)-4-oxobut-2-enoyl)piperazine-1-carboxylate] |
| 100 to 1000 nM | CC(C)(C)OC(=O)N1CCN(C(=O)/C=C/C(=O)c2cccc(F)c2)CC1 [Compound 155, tert-butyl (E)-4-(4-(3-fluorophenyl)-4-oxobut-2-enoyl)piperazine-1-carboxylate] |
| 100 to 1000 nM | CC(C)(C)OC(=O)N1CCN(C(=O)/C=C/C(=O)c2ccccc2Cl)CC1 [Compound 161, tert-butyl (E)-4-(4-(2-chlorophenyl)-4-oxobut-2-enoyl)piperazine-1-carboxylate] |
| 100 to 1000 nM | CC(C)(C)OC(=O)N1CCN(C(=O)/C=C/C(=O)c2ccc3c(c2)OCCO3)CC1 [Compound 400, tert-butyl (E)-4-(4-(2,3-dihydrobenzo[b][1,4]dioxin-6-y1)-4-oxobut-2-enoy1)piperazine-1-carboxylate] |
| 100 to 1000 nM | COc1ccc(C(=O)/C=C/C(=O)N2CCN(C(=O)OC(C)(C)C)CC2)cn1 [Compound 402, tert-butyl (E)-4-(4-(6-methoxypyridin-3-yl)-4-oxobut-2-enoyl)piperazine-1-carboxylate] |
| 100 to 1000 nM | Cn1cc(C(=O)/C=C/C(=O)N2CCN(C(=O)OC(C)(C)C)CC2)ccc1=O [Compound 403, tert-butyl (E)-4-(4-(1-methyl-6-oxo-1,6-dihydropyridin-3-y1)-4-oxobut-2-enoyl)piperazine-1-carboxylate] |
| 100 to 1000 nM | CC(C)(C)OC(=O)N1CCN(C(=O)/C=C/C(=O)c2ccc3c(c2)CCO3)CC1 [Compound 405, tert-butyl (E)-4-(4-(2,3-dihydrobenzofuran-5-y1)-4-oxobut-2-enoyl)piperazine-1-carboxylate] |
| 100 to 1000 nM | Cc1ccc(C(=O)/C=C/C(=O)N2CCN(C(=O)OC(C)(C)C)CC2)cc1 [Compound 406, tert-butyl (E)-4-(4-oxo-4-(p-tolyl)but-2-enoyl)piperazine-1-carboxylate] |
| 100 to 1000 nM | C#CCCCCC(=O)N1CCN(C(=O)/C=C/C(=O)c2ccc(OC)cc2)CC1 [Compound 408, (E)-1-(4-(hept-6-ynoyl)piperazin-1-y1)-4-(4-methoxyphenyl)but-2-ene-1,4-dione] |
| 100 to 1000 nM | C#CCOCCC(=O)N1CCN(C(=O)/C=C/C(=O)c2ccc(OC)cc2)CC1 [Compound 409, (E)-1-(4-methoxyphenyl)-4-(4-(3-(prop-2-yn-1-yloxy)propanoyl)piperazin-1-yl)but-2-ene-1,4-dione] |
| 100 to 1000 nM | COc1ccc(C(=O)/C=C/C(=O)N2CCN(C(=O)OC(C)(C)C)CC2)c(F)c1 [Compound 412, tert-butyl (E)-4-(4-(2-fluoro-4-methoxyphenyl)-4-oxobut-2-enoyl)piperazine-1-carboxylate] |
| 100 to 1000 nM | COc1cc(F)ccc1C(=O)/C=C/C(=O)N1CCN(C(=O)OC(C)(C)C)CC1 [Compound 413, tert-butyl (E)-4-(4-(4-fluoro-2-methoxyphenyl)-4-oxobut-2-enoyl)piperazine-1-carboxylate] |
| 100 to 1000 nM | CC(C)(C)OC(=O)N1CCN(C(=O)/C=C/C(=O)c2cccc(C#N)c2)CC1 [Compound 417, tert-butyl (E)-4-(4-(3-cyanophenyl)-4-oxobut-2-enoyl)piperazine-1-carboxylate] |
| 100 to 1000 nM | COc1ccc(C(=O)/C=C/C(=O)N2CCN(C(=O)OC(C)(C)C)CC2)c(Cl)c1 [Compound 418, tert-butyl (E)-4-(4-(2-chloro-4-methoxyphenyl)-4-oxobut-2-enoyl)piperazine-1-carboxylate] |
| 100 to 1000 nM | C#CCOc1ccc(C(=O)/C=C/C(=O)N2CCN(C(=O)OC(C)(C)C)CC2)cc1 [Compound 419, tert-butyl (E)-4-(4-oxo-4-(4-(prop-2-yn-1-yloxy)phenyl)but-2-enoyl)piperazine-1-carboxylate] |
